For 20 compounds, T/C results are on record in PubChem BioAssay AID248 (DTP/NCI, 2004).

The experiment relates to L1210 leukemia ip in BDF1 mice, survival T/C. The experiment is described as follows: NCI In Vivo Anticancer Drug Screen. Data for tumor model L1210 Leukemia (intraperitoneal) in B6D2F1 (BDF1) mice. Conditions: endpoint: mean survival time, higher = longer survival. The method in brief:
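Ratio derived from survival: compound-dosed mice over vehicle-dosed mice, all bearing a transplantable tumor.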

The mark [1] stands for this setting: dose: 100.0 mg/kg/injection, schedule: Q04DX003 (ip), vehicle: saline.
The mark [2] stands for this setting: dose: 200.0 mg/kg/injection, schedule: Q04DX003 (ip), vehicle: saline.
Where [3] appears, read: dose: 400.0 mg/kg/injection, schedule: Q04DX003 (ip), vehicle: saline.
Where [4] appears, read: dose: 100.0 mg/kg/injection, schedule: Q04DX002 (ip), vehicle: Klucel (hydroxypropylcellulose) (HPC).
[5] abbreviates: dose: 100.0 mg/kg/injection, schedule: Q04DX003 (ip), vehicle: Klucel (hydroxypropylcellulose) (HPC).
The mark [6] stands for this setting: dose: 200.0 mg/kg/injection, schedule: Q04DX003 (ip), vehicle: Klucel (hydroxypropylcellulose) (HPC).
[7] abbreviates: dose: 400.0 mg/kg/injection, schedule: Q04DX003 (ip), vehicle: Klucel (hydroxypropylcellulose) (HPC).
Setting [8] is: dose: 100.0 mg/kg/injection, schedule: Q01DX009 (ip), vehicle: saline.
[9] abbreviates: dose: 200.0 mg/kg/injection, schedule: Q01DX009 (ip), vehicle: saline.

“And” between values parts separate entries of the source, which are not always exact repeats. Equal values may be shown once. Toxic doses and inconclusive results are not listed.

`COC(=O)N1C(N2CCCC2=O)C(C)(C)S1(=O)=O` (stereo unspecified): the T/C by setting is: (dose: 75.0 mg/kg/injection, schedule: Q04DX003 (ip), vehicle: Klucel (hydroxypropylcellulose) (HPC)) 102 % of control; (dose: 150.0 mg/kg/injection, schedule: Q04DX003 (ip), vehicle: Klucel (hydroxypropylcellulose) (HPC)) 94 % of control; (dose: 300.0 mg/kg/injection, schedule: Q04DX003 (ip), vehicle: Klucel (hydroxypropylcellulose) (HPC)) 89 % of control.

As for `O=NN(CCCl)C(=O)Nc1ccc(S(=O)(=O)c2ccc(NC(=O)N(CCCl)N=O)cc2)cc1`, the T/C (dose: 100.0 mg/kg/injection, schedule: Q01DX009 (ip), vehicle: carboxymethylcellulose (CMC)) was 184 % of control; the T/C (dose: 118.0 mg/kg/injection, schedule: Q01DX009 (ip), vehicle: carboxymethylcellulose (CMC)) is 152 % of control; the T/C (dose: 177.0 mg/kg/injection, schedule: Q01DX001 (ip), vehicle: carboxymethylcellulose (CMC)) is 156 % of control; the T/C (dose: 200.0 mg/kg/injection, schedule: Q01DX009 (ip), vehicle: carboxymethylcellulose (CMC)) was 192 % of control; the T/C (dose: 266.0 mg/kg/injection, schedule: Q01DX001 (ip), vehicle: carboxymethylcellulose (CMC)) was 159 % of control; the T/C (dose: 266.0 mg/kg/injection, schedule: Q01DX009 (ip), vehicle: carboxymethylcellulose (CMC)) is 170 % of control. In addition, the T/C runs as follows: (dose: 400.0 mg/kg/injection, schedule: Q01DX009 (ip), vehicle: carboxymethylcellulose (CMC)) 173 % of control and 186 % of control; (dose: 600.0 mg/kg/injection, schedule: Q01DX001 (ip), vehicle: carboxymethylcellulose (CMC)) 161 % of control and 172 % of control.

For `OCCc1nn[nH]n1`, the T/C was 104 % of control under setting [1], 93 % of control under setting [2] and 98 % of control under setting [3].

Take `CN(CCc1cnc2nc(N)nc(N)c2n1)c1ccc(C(=O)NC(CCC(=O)O)C(=O)O)cc1` (stereo unspecified): the T/C (dose: 12.5 mg/kg/injection, schedule: Q01DX009 (ip), vehicle: Klucel (hydroxypropylcellulose) (HPC)) was 113 % of control; the T/C (dose: 25.0 mg/kg/injection, schedule: Q01DX009 (ip), vehicle: Klucel (hydroxypropylcellulose) (HPC)) was 118 % of control; the T/C under setting [1] is 110 % of control; the T/C under setting [2] is 105 % of control.

On to `CNC(=O)Nc1cccc([N+](=O)[O-])c1OC`, for which the T/C runs as follows: under setting [4], 100 % of control; (dose: 200.0 mg/kg/injection, schedule: Q04DX002 (ip), vehicle: Klucel (hydroxypropylcellulose) (HPC)) 103 % of control; (dose: 400.0 mg/kg/injection, schedule: Q04DX002 (ip), vehicle: Klucel (hydroxypropylcellulose) (HPC)) 106 % of control.

As for `N#Cc1cccn1-c1cccc2c(-n3cccc3C#N)cccc12`, the T/C (dose: 25.0 mg/kg/injection, schedule: Q04DX002 (ip), vehicle: Klucel (hydroxypropylcellulose) (HPC)) is 101 % of control; the T/C (dose: 50.0 mg/kg/injection, schedule: Q04DX002 (ip), vehicle: Klucel (hydroxypropylcellulose) (HPC)) was 97 % of control; the T/C under setting [4] was 101 % of control.

Take `O=C1/C(=C/c2ccc(O)c(O)c2)Cc2ccccc21`: the T/C runs as follows: under setting [5], 117 % of control; under setting [6], 105 % of control; under setting [7], 104 % of control.

As for `CCCCC(=O)N/N=C/c1ccccc1C(=O)O`, the T/C was 96 % of control (dose: 100.0 mg/kg/injection, schedule: Q01DX001 (ip), vehicle: saline); 107 % of control (dose: 200.0 mg/kg/injection, schedule: Q01DX001 (ip), vehicle: saline); 91 % of control (dose: 400.0 mg/kg/injection, schedule: Q01DX001 (ip), vehicle: saline).

With `O=c1[nH]c2ccccc2nc1C(Br)Br`, the T/C is 97 % of control under setting [5], 105 % of control under setting [6] and 97 % of control under setting [7].

Consider `O=C(Nc1ccc(C(=O)O)cc1)Nc1ccccc1Cl`, for which the T/C runs as follows: (dose: 25.0 mg/kg/injection, schedule: Q04DX002 (ip), vehicle: saline) 106 % of control; (dose: 50.0 mg/kg/injection, schedule: Q04DX002 (ip), vehicle: saline) 100 % of control; (dose: 100.0 mg/kg/injection, schedule: Q04DX002 (ip), vehicle: saline + alcohol) 114 % of control; (dose: 100.0 mg/kg/injection, schedule: Q04DX002 (ip), vehicle: saline) 118 % of control.

With `O=C(C=C(C(F)(F)F)C(F)(F)F)c1ccc(C(=O)C=C(C(F)(F)F)C(F)(F)F)cc1`, the T/C runs as follows: (dose: 12.5 mg/kg/injection, schedule: Q01DX009 (ip), vehicle: saline with Tween-80) 89 % of control; (dose: 25.0 mg/kg/injection, schedule: Q01DX009 (ip), vehicle: saline with Tween-80) 100 % of control; (dose: 50.0 mg/kg/injection, schedule: Q01DX009 (ip), vehicle: saline with Tween-80) 94 % of control and 101 % of control.

On to `O=[N+]([O-])c1c(-c2ccccc2)no[n+]1[O-]`, for which the T/C is 91 % of control (dose: 40.0 mg/kg/injection, schedule: Q04DX003 (ip), vehicle: Klucel (hydroxypropylcellulose) (HPC)) and 96 % of control (dose: 80.0 mg/kg/injection, schedule: Q04DX003 (ip), vehicle: Klucel (hydroxypropylcellulose) (HPC)).

For the compound `COc1ccc(NC(=O)Nc2cc(Cl)ccc2OC)c(OC)c1`, the T/C is 94 % of control (dose: 100.0 mg/kg/injection, schedule: Q01DX009 (ip), vehicle: Klucel (hydroxypropylcellulose) (HPC)); 103 % of control under setting [5]; 102 % of control (dose: 200.0 mg/kg/injection, schedule: Q01DX009 (ip), vehicle: Klucel (hydroxypropylcellulose) (HPC)); 101 % of control under setting [6]; 96 % of control (dose: 400.0 mg/kg/injection, schedule: Q01DX009 (ip), vehicle: Klucel (hydroxypropylcellulose) (HPC)); 101 % of control under setting [7].

Regarding `CCc1ccc(NC(=O)Nc2ccccc2OC)cc1`, the T/C is 97 % of control (dose: 100.0 mg/kg/injection, schedule: Q01DX009 (ip), vehicle: gum acacia); 98 % of control (dose: 100.0 mg/kg/injection, schedule: Q04DX003 (ip), vehicle: gum acacia); 94 % of control (dose: 200.0 mg/kg/injection, schedule: Q01DX009 (ip), vehicle: gum acacia); 92 % of control (dose: 200.0 mg/kg/injection, schedule: Q04DX003 (ip), vehicle: gum acacia); 91 % of control (dose: 400.0 mg/kg/injection, schedule: Q01DX009 (ip), vehicle: gum acacia); 104 % of control (dose: 400.0 mg/kg/injection, schedule: Q04DX003 (ip), vehicle: gum acacia).

Take `COc1ccc(C=NCCc2ccc(OC)c(OC)c2)cc1OC`: the T/C is 89 % of control under setting [8]; 102 % of control under setting [1]; 98 % of control under setting [9]; 97 % of control under setting [2]; 97 % of control (dose: 400.0 mg/kg/injection, schedule: Q01DX009 (ip), vehicle: saline); 105 % of control under setting [3].

Regarding `COc1ccc(OC)c(NC(=O)Nc2ccc(Nc3ccccc3)cc2)c1`, the T/C is, setting by setting: under setting [6], 93 % of control; under setting [7], 100 % of control.

Regarding `O=C1c2ccccc2-c2nc3cncnc3nc21` (tested in a mixture with another compound), the T/C reads like this: (dose: 50.0 mg/kg/injection, schedule: Q01DX009 (ip), vehicle: saline) 98 % of control; under setting [8], 101 % of control; under setting [1], 95 % of control; under setting [9], 101 % of control; under setting [2], 101 % of control.

`Cc1ccc(NC(=O)C(Cl)(Cl)Cl)cc1[N+](=O)[O-]`: the T/C (dose: 100.0 mg/kg/injection, schedule: Q01DX009 (ip), vehicle: saline with Tween-80) was 94 % of control; the T/C (dose: 200.0 mg/kg/injection, schedule: Q01DX009 (ip), vehicle: saline with Tween-80) is 100 % of control; the T/C (dose: 400.0 mg/kg/injection, schedule: Q01DX009 (ip), vehicle: saline with Tween-80) is 104 % of control.

Take `CCN(CC)CCN1C(=O)c2ccccc2S1(=O)=O`: the T/C is 100 % of control (dose: 44.0 mg/kg/injection, schedule: Q01DX Z (ip), vehicle: saline); 98 % of control (dose: 66.0 mg/kg/injection, schedule: Q01DX Z (ip), vehicle: saline); 98 % of control (dose: 100.0 mg/kg/injection, schedule: Q01DX Z (ip), vehicle: saline).

Consider `CCC(C)Sc1ccc(C)cc1` (stereo unspecified), for which the T/C (dose: 75.0 mg/kg/injection, schedule: Q01DX009 (ip), vehicle: Klucel (hydroxypropylcellulose) (HPC)) is 98 % of control; the T/C (dose: 150.0 mg/kg/injection, schedule: Q01DX009 (ip), vehicle: Klucel (hydroxypropylcellulose) (HPC)) was 102 % of control; the T/C (dose: 300.0 mg/kg/injection, schedule: Q01DX009 (ip), vehicle: Klucel (hydroxypropylcellulose) (HPC)) was 93 % of control.
